target: T1, myeloperoxidase (MPO) (Homo sapiens (Human), UniProt P05164); test: MPO chlorination assay (APF assay); type: biochemical; settings: not given
T1 sequence (P05164 49-745): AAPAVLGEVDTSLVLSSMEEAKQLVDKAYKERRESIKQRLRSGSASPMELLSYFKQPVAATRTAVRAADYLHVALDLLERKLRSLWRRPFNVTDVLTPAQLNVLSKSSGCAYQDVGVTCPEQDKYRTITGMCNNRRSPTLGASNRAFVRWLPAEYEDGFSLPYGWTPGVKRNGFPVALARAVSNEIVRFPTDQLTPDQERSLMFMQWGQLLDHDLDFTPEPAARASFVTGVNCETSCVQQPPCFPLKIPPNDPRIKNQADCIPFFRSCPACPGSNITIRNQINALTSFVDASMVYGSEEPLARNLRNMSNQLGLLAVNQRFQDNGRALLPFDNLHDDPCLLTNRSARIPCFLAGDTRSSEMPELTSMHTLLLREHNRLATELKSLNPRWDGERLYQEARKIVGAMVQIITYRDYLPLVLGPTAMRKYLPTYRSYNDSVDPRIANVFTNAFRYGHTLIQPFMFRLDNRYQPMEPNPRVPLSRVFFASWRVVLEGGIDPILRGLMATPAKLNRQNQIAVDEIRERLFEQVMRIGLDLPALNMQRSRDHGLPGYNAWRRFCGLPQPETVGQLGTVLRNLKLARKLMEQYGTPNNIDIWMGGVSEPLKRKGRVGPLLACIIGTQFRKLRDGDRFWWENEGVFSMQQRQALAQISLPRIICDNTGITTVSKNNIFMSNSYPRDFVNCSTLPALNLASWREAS

| Compound | IC50 [nM] |
| --- | --- |
| CS(=O)(=O)c1cccc(Cc2cc(N)nc3[nH]nnc23)c1 [Example 13, 7-(3-(methylsulfon-yl)benzyl)-3H-[1,2,3]triazolo [4,5-b]pyridin-5-amine] | 1000 to 10000 |

same assay, conditions: MPO chlorination, potency range class; read-out: APF Assay IC50 value

| Compound | IC50 [nM] |
| --- | --- |
| COc1cccc(Cc2cc(N)nc3[nH]nnc23)n1 [Example 51, 7-((6-Methoxypyridin-2-yl)methyl)-3H-[1,2,3]triazolo[4,5-b]pyridin-5-amine] | 1000 to 10000 |
| Nc1cc(Cc2cccc(C(=O)c3ccccc3)c2)c2nn[nH]c2n1 [Example 40, (3-((5-amino-3H-[1,2,3]triazolo [4,5-b]pyridin-7-yl)methyl)phenyl)(phenyl) methanone] | 101 to 999 |
| Nc1cc(Cc2cccc(F)c2F)c2nn[nH]c2n1 [Example 44, 7-(2,3-difluorobenzyl)-3H-[1,2,3] triazolo[4,5-b]pyridin-5-amine] | 101 to 999 |
| Nc1cc(Cc2ccc(F)c(F)c2)c2nn[nH]c2n1 [Example 34, 7-(3,4-difluorobenzyl)-3H-[1,2,3] triazolo[4,5-b]pyridin-5-amine] | 101 to 999 |
| Nc1cc(Cc2cccc(-c3ccn(Cc4ccccc4)n3)c2)c2nn[nH]c2n1 [Example 48, 7-(3-(1-Benzyl-1H-pyrazol-3-yl)benzyl)-3H-[1,2,3]triazolo[4,5-b]pyridin-5-amine] | 101 to 999 |
| Nc1cc(Cc2ccc(-c3ccccc3)cc2)c2nn[nH]c2n1 [Example 37, 7-([1,1′-biphenyl]-4-ylmethyl)-3H-[1,2,3]triazolo [4,5-b]pyridin-5-amine] | 101 to 999 |

target: T1, myeloperoxidase (MPO); test: MPO peroxidation assay (Amplex Red assay); type: biochemical; settings: not given

| Compound | IC50 [nM] |
| --- | --- |
| Nc1cc(Cc2ccccc2F)c2nn[nH]c2n1 [Example 23, 7-(2-fluorobenzyl)-3H-[1,2,3]triazolo [4,5-b]pyridin-5-amine] | 1 to 100 |
| Nc1cc(Cc2cccc(Cl)c2)c2nn[nH]c2n1 [Example 2, 7-(3-chlorobenzyl)-3H-[1,2,3]triazolo [4,5-b]pyridin-5-amine] | 1 to 100 |
| CS(=O)(=O)c1cccc(Cc2cc(N)nc3[nH]nnc23)c1 [Example 13, 7-(3-(methylsulfon-yl)benzyl)-3H-[1,2,3]triazolo [4,5-b]pyridin-5-amine] | 1000 to 10000 |
| COC(=O)c1cccc(Cc2cc(N)nc3[nH]nnc23)c1 [Example 7, Methyl 3-((5-amino-3H-[1,2,3]triazolo[4,5-b]pyridin-7-yl)methyl)benzoate] | 1 to 100 |
| Nc1cc(Cc2cccc(C(F)(F)F)c2)c2nn[nH]c2n1 [Example 26, 7-(3-(trifluorometh-yl)benzyl)-3H-[1,2,3]triazolo [4,5-b]pyridin-5-amine] | 1000 to 10000 |
| Nc1cc(Cc2ccc3ccccc3c2)c2nn[nH]c2n1 [Example 6, 7-(naphthalen-2-ylmethyl)-3H-[1,2,3] triazolo[4,5-b]pyridin-5-amine] | 101 to 999 |
| Nc1cc(Cc2cccc(-c3ccccc3)c2)c2nn[nH]c2n1 [Example 17, 7-(Biphenyl-3-ylmethyl)-3H-[1,2,3]triazolo[4,5-b]pyridin-5-amine] | 1 to 100 |

same assay, conditions: MPO peroxidation, potency range class; read-out: Amplex Red Assay IC50 value

| Compound | IC50 [nM] |
| --- | --- |
| COc1cccc(Cc2cc(N)nc3[nH]nnc23)n1 [Example 51, 7-((6-Methoxypyridin-2-yl)methyl)-3H-[1,2,3]triazolo[4,5-b]pyridin-5-amine] | 101 to 999 |
| Nc1cc(Cc2cccc(C(=O)c3ccccc3)c2)c2nn[nH]c2n1 [Example 40, (3-((5-amino-3H-[1,2,3]triazolo [4,5-b]pyridin-7-yl)methyl)phenyl)(phenyl) methanone] | 101 to 999 |
| Nc1cc(Cc2cccc(F)c2)c2nn[nH]c2n1 [Example 24, 7-(3-fluorobenzyl)-3H-[1,2,3]triazolo [4,5-b]pyridin-5-amine] | 1 to 100 |
| Nc1cc(Cc2cccc(F)c2F)c2nn[nH]c2n1 [Example 44, 7-(2,3-difluorobenzyl)-3H-[1,2,3] triazolo[4,5-b]pyridin-5-amine] | 1 to 100 |
| CCn1ccc2c(Cc3cc(N)nc4[nH]nnc34)cccc21 [Example 60, 7-((1-Ethyl-1H-indol-4-yl)methyl)-3H-[1,2,3]triazolo[4,5-b]pyridin-5-amine] | 101 to 999 |
| Nc1cc(Cc2ccc(-c3csnn3)cc2)c2nn[nH]c2n1 [Example 41, 7-(4-(1,2,3-thiadiazol-4-yl)benzyl)-3H-[1,2,3]triazolo [4,5-b]pyridin-5-amine] | 101 to 999 |
| Nc1cc(Cc2c(F)cccc2F)c2nn[nH]c2n1 [Example 33, 7-(2,6-difluorobenzyl)-3H-[1,2,3] triazolo[4,5-b]pyridin-5-amine] | 1 to 100 |
| N#Cc1ccc(F)c(Cc2cc(N)nc3[nH]nnc23)c1 [Example 8, 3-((5-amino-3H-[1,2,3]triazolo [4,5-b]pyridin-7-yl)methyl)-4-fluorobenzo-nitrile] | 1 to 100 |
| Cc1ccc(Cc2cc(N)nc3[nH]nnc23)cc1 [Example 3, 7-(4-methylbenzyl)-3H-[1,2,3]triazolo [4,5-b]pyridin-5-amine] | 101 to 999 |
| Nc1cc(Cc2ccc(F)c(F)c2)c2nn[nH]c2n1 [Example 34, 7-(3,4-difluorobenzyl)-3H-[1,2,3] triazolo[4,5-b]pyridin-5-amine] | 101 to 999 |
| Nc1cc(Cc2cccc(-c3ccn(Cc4ccccc4)n3)c2)c2nn[nH]c2n1 [Example 48, 7-(3-(1-Benzyl-1H-pyrazol-3-yl)benzyl)-3H-[1,2,3]triazolo[4,5-b]pyridin-5-amine] | 1 to 100 |
| Nc1cc(Cc2ccc(-c3ccccc3)cc2)c2nn[nH]c2n1 [Example 37, 7-([1,1′-biphenyl]-4-ylmethyl)-3H-[1,2,3]triazolo [4,5-b]pyridin-5-amine] | 101 to 999 |
| Nc1cc(Cc2cccc(OCc3ccccc3)c2)c2nn[nH]c2n1 [Example 49, 7-(3-(Benzyloxy)benzyl)-3H-[1,2,3]triazolo[4,5-b]pyridin-5-amine] | 101 to 999 |
| Nc1cc(Cc2cc(F)ccc2F)c2nn[nH]c2n1 [Example 42, 7-(2,5-difluorobenzyl)-3H-[1,2,3] triazolo[4,5-b]pyridin-5-amine] | 1 to 100 |
| COC(=O)c1ccc(Cc2cc(N)nc3[nH]nnc23)c(OC)c1 [Example 10, methyl 4-((5-amino-3H-[1,2,3]triazolo[4,5-b]pyridin-7-yl)methyl)-3-methoxybenzo-ate] | 101 to 999 |
| Nc1cc(Cc2cccc3c2ccn3Cc2cccc(-c3ccccc3)c2)c2nn[nH]c2n1 [Example 61, 7-((1-([1,1′-Biphenyl]-3-ylmethyl)-1H-indol-4-yl)methyl)-3H-[1,2,3]triazolo[4,5-b]pyridin-5-amine] | 1 to 100 |
| Cc1ccc(-c2cccc(Cc3cc(N)nc4[nH]nnc34)c2)cc1 [Example 15, 7-((4′-methyl-[1,1′-biphenyl]-3-yl)methyl)-3H-[1,2,3]triazolo [4,5-b] pyridin-5-amine] | 101 to 999 |
| Cc1cccc(Cc2cc(N)nc3[nH]nnc23)n1 [Example 54, 7-((6-methylpyridin-2-yl)methyl)-3H-[1,2,3]triazolo [4,5-b]pyridin-5-amine] | 101 to 999 |
| CC(C)(C)OC(=O)N1CCCc2cc(Cc3cc(N)nc4[nH]nnc34)ccc21 [Example 12, tert-butyl 6-((5-amino-3H-[1,2,3]triazolo[4,5-b]pyridin-7-yl)methyl)-3,4-dihydroquinoline-1(2H)-carboxylate] | 101 to 999 |
| Nc1cc(Cc2ccc3c(c2)OCO3)c2nn[nH]c2n1 [Example 20, 7-(benzo[d][1,3]dioxol-5-ylmethyl)-3H-[1,2,3]triazolo [4,5-b]pyridin-5-amine] | 101 to 999 |

| Compound | IC50 [nM] |
| --- | --- |
| Nc1cc(Cc2ccccc2CS(=O)(=O)c2ccccc2)c2nn[nH]c2n1 [Example 38, 7-(2-((phenylsulfon-yl)methyl)benzyl)-3H-[1,2,3]triazolo [4,5-b]pyridin-5-amine] | 101 to 999 |
| Cn1ncc2ccc(Cc3cc(N)nc4[nH]nnc34)cc21 [Example 67, 7-((1-Methyl-1H-indazol-6-yl)methyl)-3H-[1,2,3]triazolo[4,5-b]pyridin-5-amine] | 101 to 999 |
| Nc1cc(Cc2cccc(Oc3ccc(F)cc3)c2)c2nn[nH]c2n1 [Example 27, 7-(3-(4-fluorophenoxy)benzyl)-3H-[1,2,3]triazolo [4,5-b]pyridin-5-amine] | 101 to 999 |
| Nc1cc(Cc2cccc(Cl)c2F)c2nn[nH]c2n1 [Example 45, 7-(3-chloro-2-fluorobenzyl)-3H-[1,2,3] triazolo[4,5-b]pyridin-5-amine] | 1 to 100 |
| COc1ccc(-c2cccc(Cc3cc(N)nc4[nH]nnc34)n2)cc1 [Example 55, 7-((6-(4-methoxyphenyl)pyridin-2-yl)methyl)-3H-[1,2,3]triazolo [4,5-b] pyridin-5-amine] | 101 to 999 |
| Nc1cc(Cc2ccc(OC(F)(F)F)cc2)c2nn[nH]c2n1 [Example 36, 7-(4-(trifluorometh-oxy)benzyl)-3H-[1,2,3]triazolo [4,5-b]pyridin-5-amine] | 1000 to 10000 |
| Nc1cc(Cc2ccc(C(=O)c3ccccc3)cc2)c2nn[nH]c2n1 [Example 39, (4-((5-amino-3H-[1,2,3]triazolo [4,5-b]pyridin-7-yl)methyl)phenyl)(phenyl) methanone] | 101 to 999 |
| Cn1ncc2cc(Cc3cc(N)nc4[nH]nnc34)ccc21 [Example 68, 7-((1-Methyl-1H-indazol-5-yl)methyl)-3H-[1,2,3]triazolo[4,5-b]pyridin-5-amine] | 101 to 999 |
| Nc1cc(Cc2c(F)ccc(Cl)c2F)c2nn[nH]c2n1 [Example 18, 7-(3-chloro-2,6-difluorobenzyl)-3H-[1,2,3]triazolo [4,5-b]pyridin-5-amine] | 1 to 100 |
| Nc1cc(Cc2ccc3c(c2)CCC3)c2nn[nH]c2n1 [Example 22, 7-((2,3-dihydro-1H-inden-5-yl)methyl)-3H-[1,2,3]triazolo [4,5-b]pyridin-5-amine] | 101 to 999 |
| COc1ccc(Cc2cc(N)nc3[nH]nnc23)cc1 [Example 4, 7-(4-methoxybenzyl)-3H-[1,2,3] triazolo[4,5-b]pyridin-5-amine] | 101 to 999 |
| Cc1nc(-c2ccc(Cc3cc(N)nc4[nH]nnc34)cc2)no1 [Example 32, 7-(4-(5-methyl-1,2,4-oxadiazol-3-yl)benzyl)-3H-[1,2,3]triazolo [4,5-b] pyridin-5-amine] | 101 to 999 |
| Nc1cc(Cc2cccc(-n3cccn3)c2)c2nn[nH]c2n1 [Example 52, 7-(3-(1H-pyrazol-1-yl)benzyl)-3H-[1,2,3]triazolo [4,5-b]pyridin-5-amine] | 101 to 999 |
| Nc1cc(Cc2cccc3c2ccn3Cc2ccccc2)c2nn[nH]c2n1 [Example 59, 7-((1-Benzyl-1H-indol-4-yl)methyl)-3H-[1,2,3]triazolo[4,5-b]pyridin-5-amine] | 1 to 100 |
| CC(C)(C)c1ccc(Cc2cc(N)nc3[nH]nnc23)cc1 [Example 35] | 101 to 999 |
| Cc1cccc(Cc2cc(N)nc3[nH]nnc23)c1F [Example 9, 7-(2-fluoro-3-methylbenzyl)-3H-[1,2,3]triazolo [4,5-b]pyridin-5-amine] | 1 to 100 |
| Cc1cc(C)n(-c2cccc(Cc3cc(N)nc4[nH]nnc34)c2)n1 [Example 53, 7-(3-(3,5-dimethyl-1H-pyrazol-1-yl)benzyl)-3H-[1,2,3]triazolo [4,5-b] pyridin-5-amine] | 101 to 999 |
| Nc1cc(Cc2ccc3cc(F)ccc3c2)c2nn[nH]c2n1 [Example 19, 7-((6-fluoronaphthalen-2-yl)methyl)-3H-[1,2,3]triazolo [4,5-b]pyridin-5-amine] | 101 to 999 |
| Nc1cc(Cc2cccc(C(=O)NCc3ccccc3)c2)c2nn[nH]c2n1 [Example 46, 3-((5-Amino-3H-[1,2,3]triazolo[4,5-b]pyridin-7-yl)methyl)-N-benzylbenzamide] | 101 to 999 |
